Here are results for 8 molecules from patent US20120121509A1, “VITAL FLUOROCHROME CONJUGATES AND METHODS OF USE” (THE GENERAL HOSPITAL CORPORATION, priority 2009, published 2012).

Data set [1] has as its system necrotic cardiomyocytes of infarcted myocardium. The data set can be described thus: In vivo MR imaging of ischemia induced necrosis, left coronary artery ligation. The settings on record: mouse. The protocol:
For in vivo MR studies, we employed a model of prolonged ischemia, obtained when the left coronary artery of a beating mouse heart was ligated for 18 hours. The ligation and procedure is similar to our previously described method (Sosnovik, D. E. et al., Magn. Reson. Med., 54:718-24, 2005) except the duration is for 18 hours. […] GadoTO was injected (18 hours post ligation) and imaged (21 h). […] Gd-DTPA washed in and out of damaged myocardium within 1 hour.

Another data set deals with Jurkat cells. The experiment in a line: In vitro T1 weighted MRI / FRI of packed cell phantoms of camptothecin treated Jurkat cells. The class given is cell-based. The settings on record: for uptake by CPT treated cells by MRI: T1 weighted MRI, FRI and relaxometry, CPT treated versus non-CPT treated Jurkat cells. The protocol: The interaction of GadoTO with necrotic cells is shown schematically in FIG. 5A. GadoTO is excluded by vital cells. Prolonged ischemia or a 48 hour exposure to CPT induces necrosis, which causes GadoTO to enter cells and intercalate with double stranded nuclear DNA. […] Effects on cellular T1 were confirmed by relaxometry studies using cell suspensions.

The conditions of data set [2]: cited from earlier work; for Abs (absorption): first figure of Abs/em; for em (emission): second figure of Abs/em.
Another data set deals with DNA. The data set can be described thus: Fluorescence assay: binding of GadoTO to DNA monitored by fluorescence. The conditions noted are these: GadoTO 2.35 uM, increasing DNA concentrations, emission 510-700 nm; 95% confidence interval 0.149-0.214; read-out: half-maximal concentration (EC50) from fluorescence values. The protocol: Experimental Details of the Fluorescence Assay: GadoTO at 2.35 uM was employed with increasing concentrations of DNA. Absorption spectra were measured on a Varian Cary 50 Bio UV-Visible spectrophotometer. The absorbance at 511 nm was measured. Fluorescence emission spectra were recorded on a Varian Cary Eclipse fluorescence spectrophometer. Fluorescence intensities were measured between 510 and 700 nm and corrected, when necessary, for matched absorbances at 511 nm. Fluorescence intensities were plotted versus DNA concentrations.
(§1) Results from the Relaxation and Fluorescence Assays: The design of vital fluorochrome conjugates must preserve the essential features of the vital fluorochrome upon which it is based. The verification that a putative vital fluorochrome conjugates (VF-Linker-Reporter) has the properties of the VF upon which its was based is shown in FIGS. 2A, 2B, 3 and 4 which show the results with the vital fluorochrome conjugates known as GadoTO. Since the reporter group of GadoTO is a paramagnetic gadolinium chelate, binding can be ascertained by changes in the water relaxation rates. […] Binding of small GadoTO to the larger DNA slows the molecular motion, increasing the R1 relaxivity and decreasing the solution T1.

In data set [3] the test system is Jurkat T cells. The data set can be described thus: Dual wavelength FACS with Annexin V-APC, camptothecin-treated Jurkat T cells. The data set is classed as cell-based. The protocol:
(§2) Experimental Details for the Dual Wavelength FACS and Single Channel FACS: Cell culture: All experiments described used Jurkat T cells (Clone E6-1, ATCC #TIB-152). Cells were grown in RPMI 1640 medium (ThermoFisher Scientific, Hampton, N.H.) with 10% fetal bovine serum (Valley Biomedical, Winchester, Va.), 1% L-Glutamine (Mediatech, Manassas, Va.), 1% Penycillin-Streptomycin (Mediatech, Manassas, Va.). Media was changed every two or three days. Cells were maintained at 37° C., 5% CO2. Flow cytometry experiments: Cells were treated with camptothecin (CPT, 24 hrs, 10 μM). After removal of the medium, cells were resuspended into 100 μL of binding buffer (10 mM HEPES, 140 mM NaCl, 2.5 mM CaCl2, 1% FBS). Cells were stained at 37° C. for 15 min with 1 μL Annexin-APC (Invitrogen) and 1 μL propidium iodide (BD Pharmingen) or 1 μL of GadoTO (0.1 mM stock solution in binding buffer). Cells were diluted with 200 μL of binding buffer and analyzed by flow cytometry (FACSCalibur, Becton Dickinson). Fluorescence from the APC fluorochrome was measured in FL4, PI in FL3, and GadoTO in FL1.
Results from Dual Wavelength FACS: The exclusion of GadoTO from healthy cells and uptake by necrotic cells by FACS is shown in FIG. 3. […] GadoTO binding necrotic cells were of two intensities (Hi and Lo), indicating two subpopulations of necrotic cells.

The test system of data set [4] is Jurkat T cells. The data set can be described thus: Single channel FACS, GadoTO versus propidium iodide. The class given is cell-based. Here is the method: as §2, with “FL1. […]” for “FL1.”
The next data set addresses plasmid DNA. The experiment in a line: Relaxation assay: binding of GadoTO to plasmid DNA monitored by relaxometry (T1). The settings on record: GadoTO 1 mM, plasmid DNA 0.025 to 0.3 ug/uL, Bruker minispec; 95% confidence interval 0.078-0.101; read-out: half-maximal concentration (EC50) from T1 values. Here is the method: Experimental Details of the Relaxation Assay: Gadolinium thiazole orange (GadoTO) at 1 mM was employed with increasing concentrations of plasmid DNA (DNA 0.025 to 0.3 ug/uL). Relaxation times were measured on a Bruker minispec at […].
as §1

In the next data set the test system is infarcted myocardium. The experiment in a line: MR imaging of post myocardial infarction phases (age of infarction). The data set is classed as in vivo. The conditions noted are these: mouse. From the text: An additional feature of the invention is an imaging method to determine the age of a myocardial infarction (MI), i.e., the time since the occlusion began. Patients can present with symptoms of variable intensity and duration that may or may indicate an infarction. Current techniques can define regions of non-functional myocardium, but cannot define the time of infarction. With developing (“young”) infarctions, treatments to limit or reverse the affected area are indicated, while with “old” infarctions such treatments are futile. In this method a vital fluorochrome conjugate is injected intravenously and MRI or PET or SPECT are used to measure the vital fluorochrome conjugates uptake in an infracted area.
FIGS. 6A and 6B show an example of a beating mouse heart injected with GadoTO imaged during phase 2 (18 hours) (FIG. 6A) and phase 4 (8 days) (FIG. 6B) of the post MI reaction phases. […] GadoTO can thus be used to specifically image acutely necrotic myocardium/tissue.

Where only a bound is given, the exact number is not on record here.

As to `O=C([O-])CN(CCN(CC(=O)[O-])CC(=O)O)CCN(CC(=O)[O-])CC(=O)O.[Gd+3]` [Gd-DTPA], the “time to wash in and out of damaged myocardium” value in data set [1] (damaged myocardium) is at most 1 h. For the same molecule, in the data set on Jurkat cells, the “uptake by CPT treated cells by MRI” value is “did not induce the uptake”.

Consider `CN1/C(=C/C=C/C2C=CN(CCC[N+](C)(C)C)c3ccccc32)Oc2ccccc21` (centres unmarked) [YO-PRO 3], for which, in data set [2], the “Abs (absorption)” value is recorded as 612 nm and the “em (emission)” value was 631 nm.

As for `CN(C)CCCN1C=C\C(=C/C=C/C=C/c2sc3ccccc3[n+]2C)c2ccccc21.I.[I-]` [TO-PRO 5], in data set [2], the “Abs (absorption)” value was 745 nm and the “em (emission)” value was 770 nm.

`CCCN(CCCN(C)C)C1=C/C(=C\c2sc3ccccc3[n+]2C)c2ccccc2N1c1ccccc1` [Sybr Green]: in data set [2], the “Abs (absorption)” value was 490 nm and the “em (emission)” value was 520 nm.

In the case of `CN1/C(=C/c2cc[n+](CCC[N+](C)(C)C)c3ccccc23)Sc2ccccc21` [TO-PRO 1], in data set [2], the “Abs (absorption)” value is 515 nm and the “em (emission)” value is recorded as 531 nm.

Consider `C[n+]1c(/C=C/C=C2\C=CN(CCC[N+](C)(C)C)c3ccccc32)sc2ccccc21` [TO-PRO 3], for which, in data set [2], the “Abs (absorption)” value is on record as 612 nm and the “em (emission)” value was 631 nm.

As for `CN1/C(=C/c2cc[n+](CCC[N+](C)(C)C)c3ccccc23)Oc2ccccc21` [YO-PRO], in data set [2], the “Abs (absorption)” value is reported as 491 nm and the “em (emission)” value is recorded as 509 nm.

Gadolinium thiazole orange [GadoTO]: the results for the EC50 at DNA and on plasmid DNA were 179 µM and 89 µM, respectively. The “binding to cells, dual wavelength FACS” value with Jurkat T cells [3] (Jurkat T cells after camptothecin (+CPT, 24 hrs, 10 μM), necrotic cells) was “cells bound both probes”; with Jurkat T cells [3] (Jurkat T cells before camptothecin (-CPT), viable cells), “failed to bind”. The “binding to cells, single channel FACS” value is “two peaks (Lo and Hi) of highly fluorescent cells were seen” in the data set on Jurkat T cells [4] (Jurkat cells with CPT (+CPT), PI compared with GadoTO); “cells failed to bind GadoTO” with Jurkat T cells [4] (Jurkat cells without CPT (-CPT)). Also, the “uptake in infarcted myocardium” value in the data set on infarcted myocardium (phase 2 (18 hours) post MI) is listed as “Profound uptake”; in the data set on infarcted myocardium (phase 4, injected 8 days after myocardial infarction) it was “no uptake”. The “infarct on GRE image” value in data set [1] (injected 18 hours post ligation, imaged 21 h, gradient echo) is “barely visible infarct”. Further, the “infarct on IR GRE image” value in data set [1] (injected 18 hours post ligation, imaged 21 h, inversion recovery GRE) is reported as “well-defined, bright infarct”. The “uptake by CPT treated cells by MRI” value with Jurkat cells is “brighter than non-CPT treated cells”. Moreover, the “nuclear cell fluorescence emission” value in the data set on Jurkat cells (after intercalation with double stranded nuclear DNA of necrotic cells) is given as 533 nm.
